Measured values published in patent publication US8329643B2, “PIMAP39 modulates LPS-induced inflammatory response” (Trustees of Boston University, priority 2008, dated 2012).

Key:
[1] = test system: LPS-induced TNF-α production; experiment: Effects of inhibitors on LPS-induced TNF-α production in THP-1 cells (ELISA); assay type: cell-based, human; conditions: for LPS-induced TNF-α expression compared to LPS alone / TNF-α levels within 8-10 hrs post treatment: THP-1 cells; for LPS-induced TNF-α expression compared to LPS alone: 0.1 μg/ml E. coli LPS, 10 μM sodium orthovanadate, 20 μM AG490, U0126 or SB203580, ELISA 2-16 hours; for TNF-α levels within 8-10 hrs post treatment: LPS + inhibitor, ELISA
Protocol: THP-1 cells were differentiated with 100 nM phorbol-12-myristate-13-acetate (PMA) and seeded (1×10^5) in 6-well plates overnight. After washing by PBS, cells were stimulated with 0.1 mg/ml E. coli LPS for 3 hrs. The cells were washed with PBS again and treated with various inhibitors. 10 μM Sodium orthovandate, 20μM AG490, 20μM U0126, 20μM SB203580 or untreated as control. 200μl of supernatant was collected for ELISA assay (A) from each treatment at 2, 4, 6, 8, 12, 14 and 16 hours and its corresponding mRNA was prepared for RT-PCR (B) by first extracting total RNA from the treated cells using QIAQuick™ RNA miniprep (Qiagen). 1μg of each RNA was used to generate cDNA with Platinum® Quantitative RT-PCR ThermoScript™ One-Step System kit (Invitrogen). 10 ng pf cDNA from each test was PCRed using PTP4A3 forward primer 5′-[…]-3′ [SEQ ID NO: 2] and reverse primer 5′-[…]-3′ [SEQ ID NO: 3]. Another 1 ng of cDNA was PCRed using GAPDH primer pairs (Invitrogen) as control. Densitometric analysis (C) of RT-PCR (B) with intensity values normalized to GAPDH and using 0 hour value as reference intensity.
AG490, U0126 and SB203580 were purchased from EMD Biosciences (San Diego, Calif.). Sodium orthovanadate was purchased from Sigma-Aldrich (Saint Louis, Mo.). Human THP-1 cells were treated with 10 μM Sodium orthovanadate (PTP4A3 inhibitor [Greenwel, P, et al., (1995) Tyrosine dephosphorylation of nuclear proteins mimics transforming growth factor beta 1 stimulation of alpha 2(1) collagen gene expression. Mol Cell Biol 15:6813-6819], 20 μM AG490 (JAK inhibitor [Saudemont, A, et al., (2007) Dormant tumor cells develop cross-resistance to apoptosis induced by CTLs or imatinib mesylate via methylation of suppressor of cytokine signaling 1. Cancer Res 67:4491-4498], 20 μM U0126 (ERK inhibitor [Yang, L, et al., (2007) Inhibition of epidermal growth factor receptor signaling elevates 15-hydroxyprostaglandin dehydrogenase in non-small-cell lung cancer. Cancer Res 67:5587-5593], 20 μM SB203580 (p38 MAPK inhibitor [Hsieh, Y H, et al., (2007) p38 mitogen-activated protein kinase pathway is involved in protein kinase Calpha-regulated invasion in human hepatocellular carcinoma cells. Cancer Res 67:4320-4327].
For primary mouse macrophages or THP-1, cells were seeded (2×10^4 cells in 96-well plate or 2×10^6 cells in six-well plate) and were stimulated with […] of E. coli LPS (Sigma) and/or transiently transfected with […] of DNA using Lipofectamine™ Reagent and/or introduced with 500 ng/ml peptide using Chariot™ kit (ActiveMotif; Carlsbad, Calif.) prior to LPS treatment, then incubated at 37° C., 5% CO2 overnight. Culture supernatants were harvested and centrifuged at 1,500×g to remove cell debris. Concentrations of mouse or human TNF-α in the supernatant of each well of treated and untreated control cells were measured by ELISA (Abraxis, Warminster, Pa.). ELISA immunoreactivity was quantified by using a microplate reader (Bio-Rad, Hercules, Calif.) and graphed.
To investigate a link between PTP4A3 and the LPS signaling cascade, HP-1 cells were co-treated with 0.1 μg/ml E. coli LPS and/or various inhibitors, sodium orthovanadate (PTP4A3 inhibitor), AG490 (JAK inhibitor), U0126 (ERK inhibitor), SB203580 (p38 MAPK inhibitor) or untreated as control. The supernatants from cell culture at each time point (2, 4, 6, 8, 10, 12, 14 and 16 hours post stimulation) were collected and the potential role of these inhibitors on TNF-α production was measured by ELISA (Abraxis; […].). In parallel mRNA from each experimental group was prepared and quantified by RT-PCR.

PTP4A3 gene expression = experiment: PTP4A3 expression by RT-PCR in LPS plus inhibitor treated THP-1 cells; assay type: cell-based, human; conditions: time course
Protocol: THP-1 cells were differentiated with 100 nM phorbol-12-myristate-13-acetate (PMA) and seeded (1×10^5) in 6-well plates overnight. After washing by PBS, cells were stimulated with 0.1 mg/ml E. coli LPS for 3 hrs. The cells were washed with PBS again and treated with various inhibitors. 10 μM Sodium orthovandate, 20μM AG490, 20μM U0126, 20μM SB203580 or untreated as control. 200μl of supernatant was collected for ELISA assay (A) from each treatment at 2, 4, 6, 8, 12, 14 and 16 hours and its corresponding mRNA was prepared for RT-PCR (B) by first extracting total RNA from the treated cells using QIAQuick™ RNA miniprep (Qiagen). 1μg of each RNA was used to generate cDNA with Platinum® Quantitative RT-PCR ThermoScript™ One-Step System kit (Invitrogen). 10 ng pf cDNA from each test was PCRed using PTP4A3 forward primer 5′-ATGGCTCGGATGAACCGC-3′ [SEQ ID NO: 2] and reverse primer 5′-CTACATAACGCAGCACCG-3′ [SEQ ID NO: 3]. Another 1 ng of cDNA was PCRed using GAPDH primer pairs (Invitrogen) as control. Densitometric analysis (C) of RT-PCR (B) with intensity values normalized to GAPDH and using 0 hour value as reference intensity.
The PCR or RT-PCR was performed following manufacturer's instructions.

[2] = test system: LPS-induced TNF-α expression; conditions: monocyte cells, 'current studies'; cited from earlier work
[3] = test system: p38α/LITAF signaling pathway; experiment: Western blot of p38α/LITAF signaling pathway in LPS-treated THP-1 cells after PTP4A3 overexpression or RNAi; assay type: cell-based, human
Protocol: THP-1 cells (1×10^5) were stimulated with 0.1 μg/ml E. coli LPS for 3 hours. The cells were washed and transiently transfected with DNAs above using Lipofectamine™ reagent (Invetrogen). Treated cells were then incubated overnight. The supernatants from each culture were measured by ELISA. Elisa immunoreactivity was quantified using a microplate reader (Bio-Rad) and graphed (A). […] THP-1 cells (B) or mouse macrophage cells (C) were stimulated with 0.1 μg/ml E. coli LPS alone for 3 hours and then transfected with 1 μg/ml pcHAPTP DNA (B & C, lane 3) or 1 μg/ml pcDNA (B & C, lane 2) and untreated (B & C, lane 1) as controls by Lipofectamine reagent. Treated cells were incubated overnight and lysed. […]
THP-1 cells (5×10^6) matured by treatment with 200 nM phorbol 12-myristate 13-acetate (Sigma) were treated or untreated with 0.1 μg/ml LPS (Sigma) for 3 h and washed with PBS. […] The protein lysate from the treated or untreated cells were analyzed by Western blotting. […]
LITAF remains inactivated in the absence of p38 MAP kinase (p38α) and the inhibition of p38α down-regulates cytokines such as TNF-α [Tang, X, et al., (2006) LPS-induced TNF-alpha factor (LITAF)-deficient mice express reduced LPS-induced cytokine: Evidence for LITAF-dependent LPS signaling pathways. […] The lysate protein from each treated cell culture was detected by Western blot analysis. […]

Row | Molecule | LPS-induced TNF-α expression compared to LPS alone [1] | PTP4A3 expression (RT-PCR) (PTP4A3 gene expression) | LPS-induced TNF-α expression at protein and mRNA levels [2] | other results
1 | N#C/C(=C/c1ccc(O)c(O)c1)C(=O)NCc1ccccc1 [AG490] | did not result in a significant decrease | at a maximum between 8-10 hrs |  | TNF-α levels within 8-10 hrs post treatment [1]: did not increase at all
2 | CO[C@H]1[C@@H](OC)C[C@H](C)[C@@H](OC)C2=CC(=O)C=C(NC(=O)/C(C)=C/C=C\[C@H](OC)[C@@H](OC(N)=O)/C(C)=C/[C@@H]1C)C2=O [Herbimycin-A] |  |  | markedly attenuated | 
3 | C[S+]([O-])c1ccc(-c2nc(-c3ccncc3)c(-c3ccc(F)cc3)[nH]2)cc1 (centres unmarked) [SB203580] | significant decrease | at a maximum between 8-10 hrs |  | 
4 | N#CC(=C(/N)Sc1ccccc1N)/C(C#N)=C(\N)Sc1ccccc1N [U0126] | did not result in a significant decrease | at a maximum between 8-10 hrs |  | TNF-α levels within 8-10 hrs post treatment [1]: did not increase at all
5 | O=c1c(-c2ccc(O)cc2)coc2cc(O)cc(O)c12 [genistein] |  |  | markedly attenuated | 
6 | [Na+].[Na+].[Na+].[O]=[V]([O-])([O-])[O-] [sodium orthovanadate, Sodium orthovanadate] | did not result in a significant decrease | No such maximum occurred | further enhanced | LPS-induced expression of TNF-α on co-treatment ([1]; LPS and orthovanadate, FIG. 1, 8-16 hrs): augmented; concentration of secreted TNF-α higher than LPS only treated cells ([1]; on average, at the 8 hr mark and beyond, LPS + 10 μM sodium orthovanadate): 20%
7 | GUACGAGGACGCCAUCCAGUU & AACUGGAUGGCGUCCUCGUAC (listed as RNA, chemistry not given here) [RNAi, small interfering RNA (siRNA) specific for PTP4A3] |  |  |  | p38α phosphorylation in response to LPS ([3]; FIG. 4D, 100 nM siRNA or 0.5 mg pcHAPTP): significantly increased; ability of overexpressed PTP4A3 to dephosphorylate p38 ([3]; pcHAPTP plus RNAi, FIG. 4D lane 5): suppressed
